# Key:
# [1] = Drug uptake in 129Sv mouse at 5 mg/kg, po measured after 2 hrs; format: ADME, organism-based; details: in vivo, read-out: Drug uptake
# [2] = Volume of distribution at steady state in BALB/c mouse at 5 mg/kg, iv; format: ADME, organism-based; details: in vivo, read-out: Vdss
# [3] = Oral bioavailability in BALB/c mouse at 20 mg/kg; format: ADME, organism-based; details: in vivo
# [4] = Cmax in BALB/c mouse at 20 mg/kg, po; format: ADME, organism-based; design: route oral, dose 20 mg/kg; details: in vivo
# Toll-like receptor 7 = molecular target: T1, Toll-like receptor 7 (Mus musculus, UniProt P58681); experiment: Antagonist activity at TLR7 in mouse splenocytes assessed as inhibition of ssRNA40-induced IL6 production; format: cell-based, Splenocyte
# T1 sequence (P58681 whole entry): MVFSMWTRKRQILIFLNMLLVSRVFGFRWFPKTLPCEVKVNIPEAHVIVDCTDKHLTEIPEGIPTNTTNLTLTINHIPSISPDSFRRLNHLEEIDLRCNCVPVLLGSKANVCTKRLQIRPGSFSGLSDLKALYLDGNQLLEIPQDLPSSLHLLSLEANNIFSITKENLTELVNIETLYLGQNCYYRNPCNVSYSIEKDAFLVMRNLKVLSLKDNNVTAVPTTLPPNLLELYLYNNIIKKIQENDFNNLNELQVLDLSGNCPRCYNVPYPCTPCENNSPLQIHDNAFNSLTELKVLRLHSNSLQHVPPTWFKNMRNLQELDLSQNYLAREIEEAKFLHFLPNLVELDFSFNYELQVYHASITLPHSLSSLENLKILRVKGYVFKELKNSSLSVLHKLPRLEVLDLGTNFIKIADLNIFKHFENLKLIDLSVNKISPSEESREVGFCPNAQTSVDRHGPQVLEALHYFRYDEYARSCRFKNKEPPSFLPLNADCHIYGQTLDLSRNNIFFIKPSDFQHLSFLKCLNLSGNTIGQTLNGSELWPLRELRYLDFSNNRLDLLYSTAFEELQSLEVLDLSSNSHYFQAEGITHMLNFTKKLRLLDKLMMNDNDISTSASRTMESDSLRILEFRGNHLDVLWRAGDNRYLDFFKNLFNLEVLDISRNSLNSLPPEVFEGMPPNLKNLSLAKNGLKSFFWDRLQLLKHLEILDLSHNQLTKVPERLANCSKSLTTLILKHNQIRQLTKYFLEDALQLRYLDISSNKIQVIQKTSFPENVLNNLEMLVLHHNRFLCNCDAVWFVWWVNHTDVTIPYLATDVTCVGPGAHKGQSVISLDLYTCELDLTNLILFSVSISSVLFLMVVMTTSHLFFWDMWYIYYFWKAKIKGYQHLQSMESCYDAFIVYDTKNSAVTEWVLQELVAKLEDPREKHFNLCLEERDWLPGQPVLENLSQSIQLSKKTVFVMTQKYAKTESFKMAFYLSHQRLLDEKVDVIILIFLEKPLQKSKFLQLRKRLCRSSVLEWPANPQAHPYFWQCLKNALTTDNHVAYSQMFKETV
# Toll-like receptor 9 [5] = molecular target: T2, Toll-like receptor 9 (Homo sapiens, UniProt Q9NR96); experiment: Antagonist activity at TLR9 in human PBMC assessed as inhibition of ODN2216-induced IFNalpha production; format: tissue-based
# T2 sequence (Q9NR96 whole entry): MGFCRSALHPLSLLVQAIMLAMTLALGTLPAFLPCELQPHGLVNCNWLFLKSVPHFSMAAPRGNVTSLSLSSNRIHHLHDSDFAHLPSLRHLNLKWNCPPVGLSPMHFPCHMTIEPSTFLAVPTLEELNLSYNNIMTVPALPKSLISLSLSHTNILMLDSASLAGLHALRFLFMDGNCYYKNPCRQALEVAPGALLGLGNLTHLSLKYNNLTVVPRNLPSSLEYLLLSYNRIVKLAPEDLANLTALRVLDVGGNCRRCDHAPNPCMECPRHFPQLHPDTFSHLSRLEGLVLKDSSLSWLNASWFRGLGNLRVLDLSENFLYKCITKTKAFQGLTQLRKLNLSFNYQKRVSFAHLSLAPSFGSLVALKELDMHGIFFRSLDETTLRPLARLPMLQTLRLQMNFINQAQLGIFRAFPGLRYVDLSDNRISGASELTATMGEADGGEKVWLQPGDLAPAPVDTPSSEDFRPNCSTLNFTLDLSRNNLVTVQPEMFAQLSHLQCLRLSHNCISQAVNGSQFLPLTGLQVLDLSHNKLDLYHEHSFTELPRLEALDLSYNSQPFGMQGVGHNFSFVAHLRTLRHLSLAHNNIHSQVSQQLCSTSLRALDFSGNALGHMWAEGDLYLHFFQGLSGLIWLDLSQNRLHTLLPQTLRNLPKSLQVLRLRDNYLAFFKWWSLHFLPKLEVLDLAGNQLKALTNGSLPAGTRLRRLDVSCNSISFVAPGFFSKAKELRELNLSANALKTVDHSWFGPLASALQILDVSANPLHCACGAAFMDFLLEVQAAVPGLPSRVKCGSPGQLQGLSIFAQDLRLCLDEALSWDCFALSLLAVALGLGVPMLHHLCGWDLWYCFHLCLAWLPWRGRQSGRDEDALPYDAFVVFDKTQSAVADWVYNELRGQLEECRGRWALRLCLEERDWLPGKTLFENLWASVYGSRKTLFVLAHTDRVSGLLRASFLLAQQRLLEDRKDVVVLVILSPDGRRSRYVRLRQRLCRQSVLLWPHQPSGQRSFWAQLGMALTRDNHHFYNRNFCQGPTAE
# [6] = Clearance in BALB/c mouse at 5 mg/kg, iv; format: ADME, organism-based; details: in vivo
# [7] = AUC in BALB/c mouse at 20 mg/kg, po; format: ADME, organism-based; design: dose 20 mg/kg; details: in vivo
# Toll-like receptor 9 [8] = molecular target: T3, Toll-like receptor 9 (Mus musculus, UniProt Q9EQU3); experiment: Antagonist activity at TLR9 in mouse splenocytes assessed as inhibition of CpG1585-induced IL6 production; format: cell-based, Splenocyte
# T3 sequence (Q9EQU3 whole entry): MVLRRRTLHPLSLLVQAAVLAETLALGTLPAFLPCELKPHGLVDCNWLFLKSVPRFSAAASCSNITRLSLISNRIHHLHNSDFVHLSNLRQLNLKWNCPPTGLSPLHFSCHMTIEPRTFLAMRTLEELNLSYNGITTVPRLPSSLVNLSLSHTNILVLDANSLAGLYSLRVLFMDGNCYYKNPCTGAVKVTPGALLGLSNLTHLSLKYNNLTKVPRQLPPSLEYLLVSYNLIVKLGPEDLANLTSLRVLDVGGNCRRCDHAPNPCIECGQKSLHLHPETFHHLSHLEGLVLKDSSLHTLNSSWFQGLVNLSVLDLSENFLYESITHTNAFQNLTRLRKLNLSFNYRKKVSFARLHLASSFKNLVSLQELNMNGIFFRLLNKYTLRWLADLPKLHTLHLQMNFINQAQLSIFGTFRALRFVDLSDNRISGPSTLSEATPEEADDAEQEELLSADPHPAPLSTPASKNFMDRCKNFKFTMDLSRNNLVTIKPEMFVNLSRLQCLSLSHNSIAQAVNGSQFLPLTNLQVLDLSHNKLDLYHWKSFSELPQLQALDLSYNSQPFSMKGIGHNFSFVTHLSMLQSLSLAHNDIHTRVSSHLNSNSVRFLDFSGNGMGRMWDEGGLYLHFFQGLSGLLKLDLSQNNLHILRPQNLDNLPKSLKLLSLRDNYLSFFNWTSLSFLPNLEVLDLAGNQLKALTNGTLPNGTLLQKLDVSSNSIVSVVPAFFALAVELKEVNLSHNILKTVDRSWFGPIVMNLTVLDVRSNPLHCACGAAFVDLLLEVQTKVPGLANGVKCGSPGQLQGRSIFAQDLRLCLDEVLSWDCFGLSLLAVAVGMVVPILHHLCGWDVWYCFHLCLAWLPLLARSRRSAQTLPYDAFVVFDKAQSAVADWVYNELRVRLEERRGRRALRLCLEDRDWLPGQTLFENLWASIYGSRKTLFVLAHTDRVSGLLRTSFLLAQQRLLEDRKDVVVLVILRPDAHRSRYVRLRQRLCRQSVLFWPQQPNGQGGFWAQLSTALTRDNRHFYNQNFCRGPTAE
# [9] = Terminal half life in BALB/c mouse at 5 mg/kg, iv; format: ADME, organism-based; details: in vivo, read-out: beta t1/2 (converted)
SMILES,concentration at 2 h [1],Vd [2],bioavailability [3],Cmax [4],IC50 (Toll-like receptor 7),IC50 (Toll-like receptor 9 [5]),clearance [6],AUC [7],IC50 (Toll-like receptor 9 [8]),half-life [9]
Cc1cc(-c2ccnc3[nH]ncc23)cnc1OCC12CCC(O)(CC1)CC2,,3.1 L/kg,43%,4370 nM,55 nM,> 5000 nM,11 mL/min/kg,36.3 µM·h,> 10000 nM,4.7 h
Cn1nc(-c2ccc(OC[C@H]3CC[C@H](N)CC3)c(F)c2)c2cnc(N)nc21,,,,,110 nM,1400 nM,,,1900 nM,
Cn1nc(-c2ccc(OCC3CC4(CNC4)C3)c(F)c2)c2cnc(N)nc21,,,,,,6500 nM,,,1200 nM,
Cn1nc(-c2ccc(OCC3C[C@H]4CC[C@@H](C3)N4)c(F)c2)c2cnc(N)nc21 (some centres undefined),,,,,120 nM,1200 nM,,,1200 nM,

# Other lines, results leading:
concentration at 2 h [1],Vd [2],bioavailability [3],Cmax [4],IC50 (Toll-like receptor 7),IC50 (Toll-like receptor 9 [5]),clearance [6],AUC [7],IC50 (Toll-like receptor 9 [8]),half-life [9],SMILES
300 nM,,,,,,,,,,Cl.Cn1nc(-c2ccc(OCC34CCC(N)(CC3)CC4)c(F)c2)c2cnc(N)nc21
,15 L/kg,34%,354 nM,,3300 nM,96 mL/min/kg,2.98 µM·h,,4.1 h,Cc1cc(-c2nn(C)c3nc(N)ncc23)cnc1OCC12CCC(N)(CC1)CC2
,13.8 L/kg,150%,1400 nM,,,44 mL/min/kg,28.9 µM·h,,4.9 h,Cc1cc(-c2cnc(OCC34CCC(N)(CC3)CC4)c(C)c2)c2cnn(C)c2n1
,,,,300 nM,3700 nM,,,800 nM,,Cn1ncc2c(-c3ccc(OCC45CCC(N)(CC4)CC5)c(F)c3)nc(N)nc21
